What was measured:
endometriotic tissue = test: Surgically induced endometriosis (autotransplanted endometrial fragments) in cynomolgus monkeys, laparoscopy; assay type: in vivo, Macaca fascicularis; conditions: for Endometriotic lesion diameter: control 11.4±1.6
Text: Numerous animal models of endometriosis have been developed involving rabbits (Rock, J A et al., Intraocular endometrium in the rabbit as a model for endometriosis, Fertil. Steril. 59:232-35 [1993]), rodents (Sakura, Y et al., Histological studies on the therapeutic effect of sustained-release microspheres of a potent LHRH agonist (leuprorelin acetate) in an experimental endometriosis model in rats, Endocrinol. Jpn. 37:719-729 [1990]; Rajkumar, K et al., The rat as an animal model for endometriosis to examine recurrence of ectopic endometrial tissue after regression, Fertil. Steril. 53:921-25 [1990]; Sudo, K et al., Effects of TAP-144-SR, a sustained-release formulation of a potent GnRH agonist, on experimental endometriosis in the rat, Endocrinol. Jpn. […] Gynecol. […] Steril. […] An. Sci. 33 :P15 [1994]; Cummings, A M and Metcalf, J L, Induction of endometriosis in mice: a new model sensitive to estrogen, Reprod. Toxicol. 9:233-38 [1995]; Cummings, A M et al., Promotion of endometriosis by 2,3,7,8-tetrachlorodibenzo-p-dioxin in rats and mice: time-dose dependence and species comparison, Toxicol. Appl. Pharmacol. 138:131-39 [1996]; Foster, W G et al., Morphologic characteristics of endometriosis in the mouse model: application to toxicology, Can. J. Physiol. Pharmacol. 75:1188-96 [1997]; Aoki, D et al., Successful heterotransplantation of human endometrium in SCID mice, Obstet. Gynecol. 83:220-28 [1994]; Bruner, K L et al., Suppression of matrix metalloproteinases inhibits establishment of ectopic lesions by human endometrium in nude mice, J. Clin. Invest. 99:2851-57 [1997]), and non-human primates (Schenken, R S et al., Etiology of infertility in monkeys with endometriosis: luteinized unruptured follicles, luteal phase defects, pelvic adhesions, and spontaneous abortions, Fertil. Steril. 41:122-30 [1984]; Rier, S E et al., Endometriosis in rhesus monkeys (Macaca mulatta) following chronic exposure to tetrachlorodibenzo-p-dioxin, Fund. Appl. Toxicol. 21:433-41 [1993]; D'Hooghe, T D et al., Development of a model of retrograde menstruation in baboons (Papio anubis), Fertil. Steril. 62:635-38 [1994]). […] Therefore, a non-human primate model was selected, because monkeys and baboons spontaneously develop endometriosis, the pathophysiology of the disease resembles humans and abundant tissue can be obtained for study purposes. In particular, nulliparous female cynomolgus monkeys (Macaca fascicularis) were the animals chosen.
The effects of subchronic exposure to an AhR binding ligand was examined in a non-human primate model. Endometrial fragments were surgically autotransplanted to the pelvic cavity of nulliparous cynomolgus monkeys (Macaca fascicularis, n=23). Briefly, each monkey's own endometrial tissue was obtained during a laparotomy in which the body of the uterus was opened in the anterior midline. A strip of endometrium was removed by careful dissection and divided into a number of equal pieces, one of which was used for histopathology to confirm the presence of both endometrial epithelium and stroma. […]
The monkeys were divided into 4 treatment groups and dosed five days a week with gelatin capsules containing 0, 1, 5 or 25 ng/kg body mass of AhR binding ligand 2,3,7,8-tetrachlorodibenzo-p-dioxin (TCDD), mixed with glucose. Endometriotic implant survival and diameter were monitored by laparoscopy at intervals of one, three, six and 12 months.

endometriosis = conditions: rodents and monkeys; cited from earlier work
estrogen metabolites = conditions: oral administration, women; cited from earlier work
[1] = biological target: T1, aryl hydrocarbon receptor (Homo sapiens, UniProt P35869); conditions: in culture; cited from earlier work
T1 sequence (P35869 11-848): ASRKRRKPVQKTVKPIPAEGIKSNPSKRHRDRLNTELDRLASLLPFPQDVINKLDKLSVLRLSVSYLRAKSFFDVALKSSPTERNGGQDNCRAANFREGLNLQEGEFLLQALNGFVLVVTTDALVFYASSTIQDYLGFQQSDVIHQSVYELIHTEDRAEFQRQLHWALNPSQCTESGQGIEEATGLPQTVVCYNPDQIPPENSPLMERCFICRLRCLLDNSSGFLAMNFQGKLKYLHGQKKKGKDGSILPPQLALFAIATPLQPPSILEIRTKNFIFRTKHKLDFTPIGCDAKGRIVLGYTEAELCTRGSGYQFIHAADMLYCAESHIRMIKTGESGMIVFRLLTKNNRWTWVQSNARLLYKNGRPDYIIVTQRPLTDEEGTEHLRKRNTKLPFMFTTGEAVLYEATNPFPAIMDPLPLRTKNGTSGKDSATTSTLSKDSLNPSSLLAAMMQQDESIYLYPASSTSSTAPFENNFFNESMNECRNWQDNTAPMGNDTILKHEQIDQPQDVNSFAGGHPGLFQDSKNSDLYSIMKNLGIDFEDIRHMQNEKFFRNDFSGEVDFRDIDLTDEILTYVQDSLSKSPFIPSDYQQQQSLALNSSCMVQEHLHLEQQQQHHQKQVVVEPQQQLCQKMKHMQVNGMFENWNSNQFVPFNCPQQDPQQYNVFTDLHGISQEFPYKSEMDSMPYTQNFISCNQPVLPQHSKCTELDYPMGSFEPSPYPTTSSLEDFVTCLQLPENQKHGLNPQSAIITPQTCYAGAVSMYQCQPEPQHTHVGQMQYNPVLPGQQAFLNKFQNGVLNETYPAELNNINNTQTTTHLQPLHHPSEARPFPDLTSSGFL

uterus = conditions: animal experiment; cited from earlier work

## Clc1cc2c(cc1Cl)Oc1cc(Cl)c(Cl)cc1O2 [TCDD, 2,3,7,8-tetrachlorodibenzo-p-dioxin]
Endometriotic tissue; 0.71 ng/kg/day TCDD, oral gelatin capsules
  Endometriotic lesion diameter: 4.2±0.9 mm
Endometriotic tissue; 0.71 ng/kg/day TCDD, oral, control 16%
  Endometriotic lesion survival rate: 20%
Endometriotic tissue; 3.57 ng/kg/day TCDD for one year, oral, control 16.0%
  Endometriotic lesion survival rate: 26.7%
Endometriotic tissue; 17.86 ng/kg/day TCDD for one year, oral
  Endometriotic lesion diameter: 14.5±0.2 mm
Endometriotic tissue; 17.86 ng/kg/day TCDD for one year, oral, control 16.0%
  Endometriotic lesion survival rate: 33.3%
endometriosis
  Effect on endometriosis: promoted endometriosis

## OCc1c[nH]c2ccccc12 [indole-3-carbinol]
Estrogen metabolites
  Levels of estrogen metabolites: reduce levels of estrogen metabolites

## N[C@@H](Cc1c[nH]c2ccccc12)C(=O)O [tryptophan]
[1]
  Binding to and activation of aryl hydrocarbon receptor: bind to and activate

## Fc1ccc2[nH]cc(Cc3c[nH]c4ccccc34)c2c1 [5-fluoro-diindolylmethane]
uterus
  Uterine wet weight as a percentage of body weight: increase

## NCCc1c[nH]c2ccccc12 [tryptamine]
[1]
  Binding to and activation of aryl hydrocarbon receptor: bind to and activate
